Test results published in patent US20220008376A1, “INHIBITORS OF TYPE 3 SECRETION SYSTEM AND ANTIBIOTIC THERAPY” (priority 2018, published 2022).
Like-named read-outs stand apart in the source and are kept apart here.

Assays:
PscE-PscG heterodimer [1] = target: T1, PscE-PscG heterodimer (Pseudomonas aeruginosa, UniProt P95435); format: binding; design: made in house; host or cells: total chemical synthesis (solid phase peptide synthesis and native chemical ligation), no expression host; conditions: FP competition with FAM-PscF69-85 for PscE-PscG
Description: Fluorescence polarization (FP) and FP-based competitive binding assays. All fluorescence polarization assays were done using black, low protein binding 96-well plates (Thermo Fisher Scientific) in a total volume of 100 μl per well of 10 mM Tris buffer containing 150 mM NaCl and 1 mM EDTA, pH 7.0, unless indicated otherwise. After a gentle mixing and incubation for 3 h, FP readings were taken at 470 nm (excitation) and 530 nm (emission) wavelengths on a Tecan Infinite M2000 fluorescence plate reader. Nonlinear regression analyses were performed to give rise to Kd and IC50 values as previously described.
For direct binding of PscF to PscG or PscE-PscG, equal volumes of FAM-PscF^69-85 (400 nM) and serially diluted PscG or PscE-PscG (0-64 μM) were mixed. For initial screening, 95 μl of FAM-PscF^69-85-PscE-PscG (100 nM) in the assay buffer was mixed with 5 μl of small molecule inhibitor in DMSO to a final molar concentration of 1, 10, 100, or 1000 μM. 5% DMSO and 6 M GuHCl in the final assay buffer were used as negative and positive controls, respectively. For secondary screening or competitive binding assays, 95 μl of FAM-PscF^69-85-PscE-PscG (100 nM) in the assay buffer was mixed with 5 μl of serially diluted PscF^69-85 or various tanshinone analogs (0-200 μM).
Target sequence in this assay (P95435 1-114): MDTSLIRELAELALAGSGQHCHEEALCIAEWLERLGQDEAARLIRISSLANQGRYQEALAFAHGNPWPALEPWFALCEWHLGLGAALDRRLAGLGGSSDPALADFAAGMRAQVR
Target sequence in this assay (Q9I317 whole entry, further chain): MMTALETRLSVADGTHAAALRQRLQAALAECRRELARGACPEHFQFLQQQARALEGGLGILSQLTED

PAO1 [2] = assay: Bacterial burden in bronchoalveolar lavage and lung histopathology, PAO1-infected mice; format: in vivo, C57BL/6J mice
Description: (§1) Animal studies. 6-week-old female C57BL/6J mice used in this study were acquired from the Experimental Animal Center of Xian Jiaotong University. All the animals were maintained in animal care facilities in the School of Life Science and Technology, and provided with food and water ad libitum. The animal studies were approved by the Committee on Animal Research and Ethics, Xi'an Jiaotong University.
C57BL/6J mice were lightly anesthetized with inhaled sevoflurane and infected by intranasal instillation of PAO1 (1×10^7 CFU in 20 μL PBS) after lightly anesthetized with inhaled sevoflurane. Tanshinone inhibitors were administrated to the animals along with bacterial inoculation (100 μM, 1% DMSO). PBS containing 1% DMSO was used as mock treatment. 18 hours after infection, animals were sacrificed and bronchoalveolar lavages were collected and plated to obtain the bacterial counts in the lavages. The lungs of sacrificed mice were then isolated and fixed in 10% buffered formalin, paraffin embedded and hematoxylin-eosin-stained for histopathological examination. Pathological scores of the tissues were assigned according to the degree of inflammation.

[3] = tested on: secretion of ExoS by PAO1; assay: Inhibition of T3SS-mediated effector secretion (ExoS Western blot); format: cell-based, Pseudomonas aeruginosa; conditions: PAO1 under low-calcium conditions; for inhibition of ExoS secretion: 100 μM
Description: Inhibition of T3SS-mediated effector secretion. For T3SS induction, PAO1 overnight cultures were diluted to an OD at 600 nm of 0.3 in LB containing 5 mM EGTA and 20 mM MgCl2, in the presence of tanshinone inhibitors ([…]), followed by an incubation with mild agitation of additional 3-4 hours until the cultures reached an OD value of 1.5. NC group were cultured in LB and 2% DMSO, PC group were cultured in LB containing 5 mM EGTA, 20 mM MgCl2 and 2% DMSO. Culture supernatant was collected by centrifugation at 4000 g for 15 min at 4° C. and secreted proteins were concentrated by adding ice-cold trichloroacetic acid to a final concentration of 10% (V/V). Following a 2 hours' incubation on ice, the pellets were washed twice with cold acetone and suspended in an SDS-PAGE sample buffer (with 2-mercaptoethanol) according to the BCA protein assay protocol. Secreted and total proteins (supernatant and pelleted bacteria) were analyzed by immunoblotting with an anti-ExoS antibody (Agrisera, AS05056, at 1:4000 dilution) and corresponding HRP-conjugated secondary antibody. The blots were semi-quantified using ImageJ 1.51 k (from http://imagej.nih.gov/ij). The results were expressed as the mean±SD percentage of secreted ExoS out of total ExoS of three independent experiments.

[4] = tested on: intracellular PAO1 in J774A.1 cells; conditions: different concentrations, gentamicin at 2 h post infection
Description: Quantification of bacterial internalization. 5×10^4 J774a cells were seeded into each well of a 24-well plate and grown for 24 h before infection. One hour before the infection, cell culture medium was changed into serum-free medium and PAO-1 from mid-exponential phase was added to the cells at a multiplicity of infection (MOI) of 8. In the presence of different concentration of tanshinone inhibitors (0-100 μM compound, 2% DMSO), bacteria/cells mixtures were incubated for 2 hours and washed, then treated with gentamicin-containing (50 μg/ml) medium for another 2 hours before being lysed for plating. Internalized bacteria were defined as the total number of intracellular bacteria in cells (extracellular bacteria were killed by gentamicin, a cell-impermeable antibiotic). Results were normalized against the intracellular bacteria number by PAO-1-infected cells with mock treatment (2% DMSO). Average results of three independent experiments are shown as mean±SD.

PAO1 [5] = assay: Survival study, murine model of acute pneumonia; format: in vivo, C57BL/6J mice; conditions: for mice died of infection within 48 h, first treatment 8 h after challenge: mock-treated 85%
Description: as §1
For survival study, tanshinone inhibitors (100 μM, 1% DMSO, in 10 μL PBS) were administrated to the infected animals intranasally at the time of infection, or 8 h after infection, and every 12 hours till the death of the animal or the end of the experiment. PBS containing 1% DMSO was used as mock treatment.

[6] = tested on: cytotoxicity of PAO1 to murine macrophages (J774A.1); assay: Cytoplasmic lactate dehydrogenase (LDH) release assay, PAO1-infected macrophages; format: cell-based, mouse; conditions: for inhibition of Pseudomonas aeruginosa-induced cell lysis (LDH release), words: different concentrations, MOI 8, 5 hours; for EC50: Mus musculus
Description: Cytoplasmic lactate dehydrogenase (LDH) release assay. […] LDH released into supernatant was detected by LDH detection kit (Beyotime, C0017) as instructed by the manufacturer.

[7] = target: T2, PscF^69-85-PscE-PscG complex (Pseudomonas aeruginosa, UniProt P95435); assay: CD spectroscopy and thermal denaturation of the heterotrimer; conditions: for effect on helicity of the heterotrimeric complex: CD, 20 μM heterotrimer, 25° C., 10 mM phosphate buffer, pH 7.4
T2 construct: made in house; host or cells: total chemical synthesis (solid phase peptide synthesis and native chemical ligation), no expression host
Description: Circular dichroism (CD) spectroscopy and thermal denaturation. […] Protein thermal denaturation was carried out in PBS using a JASCO circular dichroism spectrometer equipped with temperature controller. […] Under constant stirring, measurement was taken at one-degree interval between 25° C. and 90° C., at a heating rate of 1° C. per minute. After each 1-minute heating, the solution in the cuvette was waited for 20 s before signals were detected over a 16 s period. Heating and data acquisition were fully automated with the control software provided by JASCO. Data processing was performed as previously described.

PscE-PscG heterodimer [8] = target: T1, PscE-PscG heterodimer; assay: 15N-1H HSQC NMR of 15N-PscG-PscE with dHTSN1; format: binding; design: inferred from the Ni-NTA purification; made in house; host or cells: PscG: E. coli (15N MOPS medium); PscE: chemical synthesis; conditions: molar ratio 1:1:1
Description: PscG was uniformly labeled with ^15N MOPS medium containing 1 g/L ^15NH4Cl as the sole source and BME vitamins (Sigma, USA). Cells were harvested by centrifugation at 6000 g for 30 min, resuspended in a lysis buffer containing 6 M urea, and subjected to a 1-min sonication, followed by two-cycle homogenization at 4° C. The lysates were centrifuged at 20,000 rpm for 30 min, and the supernatant was loaded onto a 10 ml Ni-NTA agarose column (Qiagen, USA). The elute was concentrated to 10-12 ml under denaturation conditions, followed by purification on a Sep-Pak C18 column. Peak fractions containing ^15N-PscG were lyophilized. […] The mixtures were dialyzed against the same buffer overnight and then concentrated to ˜300 μl.
All NMR samples were prepared in an NMR buffer containing 20 mM sodium phosphate (pH 7.4), 100 mM NaCl, 0.1% NaN3, 10% D2O and 2 mM DTT. The final protein concentrations were approximately 26 μM and 47.8 μM for ^15N-PscG-PscE and ^15N-PscG-PscE-dHTSN1 complexes, respectively. All NMR spectra were collected at 25° C. on a Bruker Avance 700 MHz spectrometer equipped with a triple-resonance pulse-field gradient probe. ^15N-^1H HSQC NMR spectra were recorded in the echo-antiecho mode for quadrature detection. All datasets were acquired with 2048 complex points in t2 and 256 complex points in t1.
Target sequence in this assay (Q9I317 whole entry): as the sequence (Q9I317 whole entry, further chain) above
Target sequence in this assay (P95435 whole entry): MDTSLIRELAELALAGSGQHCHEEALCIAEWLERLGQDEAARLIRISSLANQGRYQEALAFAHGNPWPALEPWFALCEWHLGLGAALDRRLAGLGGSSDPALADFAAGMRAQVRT

[9] = first intranasal dose 8 h after PAO1
[10] = J774.A1, read-out: EC50, LDH release normalized against PAO1 ΔpscC
[11] = J774.A1, normalized against mock-treated PAO1-infected cells, read-out: EC50, inhibition of PAO1 cytotoxicity to macrophages (LDH release)

T2 sequence (Q9I317 whole entry): as the sequence (Q9I317 whole entry, further chain) above
T2 sequence (P95435 2-115): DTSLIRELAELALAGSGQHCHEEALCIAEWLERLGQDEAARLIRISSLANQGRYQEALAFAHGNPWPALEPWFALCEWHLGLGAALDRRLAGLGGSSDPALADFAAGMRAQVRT

SMILES	activity in FP competition assay (PscE-PscG heterodimer [1])	mice died of infection within 48 h, first treatment 8 h after challenge (PAO1 [5]; [9])	inhibition of Pseudomonas aeruginosa-induced cell lysis (LDH release), words [6]	inhibition of ExoS secretion [3]	EC50 [6, 10]	EC50 [6, 11]	also measured
CC(Oc1ccc(Cl)cc1Cl)C(=O)NCc1ccc2c(c1)OCO2 (stereo not shown) [MBX-1641, reference compound]	no effect						bacterial burden in bronchoalveolar lavage (PAO1 [2]; single dose 100 μM at time of infection, sampled 18 h post infection): reduced bacterial burden; inhibition of ExoS secretion (MBX-1641) ([3]; 6.25 μM): inhibited; inhibition of intracellular bacterial survival / proliferation of PAO1 in macrophages [4]: inhibited
Cc1coc2c1C(=O)C(=O)c1c-2ccc2c(C)cccc12 [TSN1, tanshinone 1]		40%	inhibited Pseudomonas aeruginosa-induced cell lysis in a dose dependent manner				protection of infected mice, treatment from time of infection (PAO1 [5]; 100 μM intranasal at time of infection and every 12 h): significantly protective; effect on helicity of the heterotrimeric complex [7]: reduced; effect on helicity of the heterotrimeric complex ([7]; listed as tanshinone 1): progressively decreases; effect on thermal stability of the heterotrimeric complex ([7]; added to preformed heterotrimer PscE-PscG-PscF^69-85): reduced; Tm of PscF^69-85-PscE-PscG complex in presence of compound ([7]; complex 20 μM in PBS, 300 μM tanshinone 1, CD at 222 nm, 54.8 in absence): 52.3 °C
C[C@H]1COC2=C1C(=O)C(=O)c1c2ccc2c1CCCC2(C)C [crpTSN, cryptotanshinone, reference compound]	inactive		inactive	no inhibitory activity			
Cc1cccc2c3c(ccc12)C1=C(C(=O)C3=O)[C@@H](C)CO1 [dHTSN1, dihydrotanshinone 1]		5%	inhibited Pseudomonas aeruginosa-induced cell lysis in a dose dependent manner	more active than TSN1	~3 µM	25 µM	infected mice survived beyond 96 h, first treatment 8 h after challenge (PAO1 [5]; [9]): 80%; lung inflammation, H&E staining (PAO1 [2]; 18 h post infection): significantly reduced inflammation; interaction with 15N-PscG-PscE complex by NMR (PscE-PscG heterodimer [8]): relatively strong interactions
Cc1cccc2c3c(ccc12)C(=O)C1=C(OC[C@H]1C)C3=O [dHTSN]		20%	inhibited Pseudomonas aeruginosa-induced cell lysis in a dose dependent manner	more active than TSN1	~3 µM	12.5 µM	
Cc1coc2c1C(=O)C(=O)c1c-2ccc2c1CCCC2(C)C [tanshinone 2A]	inactive						
